SMILES strings stand for the structures.

These results are taken from patent publication US12077503B2, “Substituted cyclic amides and their use as herbicides” (FMC CORPORATION, priority 2015, dated 2024).

Type in all cases: in vivo
In assay [1] the test system is Kochia (Kochia scoparia). Put plainly: Test A preemergence. The settings on record: Bassia scoparia, pre-emergence, 240 h; for pest or weed control at 125 g/ha: 125 g ai/ha, preemergence, 0 to 100 scale where 0 is no effect and 100 is complete control, read-out: Kochia plant response rating; for pest or weed control at 500 g/ha: 500 g ai/ha, Preemergence, visual injury vs untreated controls after approximately 10 d, read-out: Kochia plant response rating (0 to 100 scale where 0 is no effect and 100 is complete control). The essentials: (§1)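 In a loam soil and sand blend, planted seeds got a preemergence directed soil spray, and young plants at the one- to two-leaf stage, 2–10 cm high, got a postemergence application; ~10 d greenhouse hold; injury rated visually, 0 = none, 100 = complete control.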

Assay [2] has as its system barnyardgrass (Echinochloa crus-galli). Put plainly: Test A preemergence. The settings on record: Echinochloa crus-galli, pre-emergence, 240 h; for pest or weed control at 125 g/ha: 125 g ai/ha, preemergence, 0 to 100 scale where 0 is no effect and 100 is complete control, read-out: Barnyardgrass plant response rating; for pest or weed control at 500 g/ha: 500 g ai/ha, Preemergence, visual injury vs untreated controls after approximately 10 d, read-out: Barnyardgrass plant response rating (0 to 100 scale where 0 is no effect and 100 is complete control). The essentials: as §1

In assay [3] the test system is giant foxtail (Setaria faberii). Nature of the assay: Test A preemergence. The conditions noted are these: Setaria faberi, pre-emergence, 240 h; for pest or weed control at 125 g/ha: 125 g ai/ha, preemergence, 0 to 100 scale where 0 is no effect and 100 is complete control, read-out: Foxtail, Giant plant response rating; for pest or weed control at 500 g/ha: 500 g ai/ha, Preemergence, visual injury vs untreated controls after approximately 10 d, read-out: Foxtail, Giant plant response rating (0 to 100 scale where 0 is no effect and 100 is complete control). Summed up:
as §1

Assay [4] relates to pigweed (Amaranthus retroflexus). Put plainly: Test A preemergence. The conditions noted are these: Amaranthus retroflexus, pre-emergence, 240 h; for pest or weed control at 125 g/ha: 125 g ai/ha, preemergence, 0 to 100 scale where 0 is no effect and 100 is complete control, read-out: Pigweed plant response rating; for pest or weed control at 500 g/ha: 500 g ai/ha, Preemergence, visual injury vs untreated controls after approximately 10 d, read-out: Pigweed plant response rating (0 to 100 scale where 0 is no effect and 100 is complete control).

Assay [5] relates to ragweed (common ragweed, Ambrosia elatior). Put plainly: Test A preemergence. The settings on record: Ambrosia artemisiifolia, pre-emergence, 240 h; for pest or weed control at 125 g/ha: 125 g ai/ha, preemergence, 0 to 100 scale where 0 is no effect and 100 is complete control, read-out: Ragweed plant response rating; for pest or weed control at 500 g/ha: 500 g ai/ha, Preemergence, visual injury vs untreated controls after approximately 10 d, read-out: Ragweed plant response rating (0 to 100 scale where 0 is no effect and 100 is complete control). Summed up:
as §1

Assay [6] has as its system ryegrass, Italian (Italian ryegrass, Lolium multiflorum). Put plainly: Test A preemergence. The conditions noted are these: Lolium multiflorum, pre-emergence, 240 h; for pest or weed control at 125 g/ha: 125 g ai/ha, preemergence, 0 to 100 scale where 0 is no effect and 100 is complete control, read-out: Ryegrass, Italian plant response rating; for pest or weed control at 500 g/ha: 500 g ai/ha, Preemergence, visual injury vs untreated controls after approximately 10 d, read-out: Ryegrass, Italian plant response rating (0 to 100 scale where 0 is no effect and 100 is complete control). Summed up:
as §1

In assay [7] the test system is Galium (catchweed bedstraw, Galium aparine). Put plainly: Test A postemergence. The settings on record: Galium, post-emergence, 240 h, 125 g ai/ha, postemergence, visual injury rating after approximately 10 d; read-out: Galium plant response rating (0 to 100 scale, 0 no effect, 100 complete control). The essentials:
as §1

Assay [8] concerns Kochia (Kochia scoparia). Put plainly: Test A postemergence. The conditions noted are these: Bassia scoparia, post-emergence, 240 h, 125 g ai/ha, postemergence, visual injury rating after approximately 10 d; read-out: Kochia plant response rating (0 to 100 scale, 0 no effect, 100 complete control). Summed up:
as §1

The subject of assay [9] is barnyardgrass (Echinochloa crus-galli). Nature of the assay: Test A postemergence. The conditions noted are these: Echinochloa crus-galli, post-emergence, 240 h, 125 g ai/ha, postemergence, visual injury rating after approximately 10 d; read-out: Barnyardgrass plant response rating (0 to 100 scale, 0 no effect, 100 complete control). Summed up: as §1
The test system of assay [10] is corn (Zea mays). Nature of the assay: Test A postemergence. The settings on record: Zea mays, post-emergence, 240 h, 125 g ai/ha, postemergence, visual injury rating after approximately 10 d; read-out: Corn plant response rating (0 to 100 scale, 0 no effect, 100 complete control). Summed up: as §1
Assay [11] relates to giant foxtail (Setaria faberii). Nature of the assay: Test A postemergence. The conditions noted are these: Setaria faberi, post-emergence, 240 h, 125 g ai/ha, postemergence, visual injury rating after approximately 10 d; read-out: Foxtail, Giant plant response rating (0 to 100 scale, 0 no effect, 100 complete control). Summed up: as §1
Assay [12] concerns pigweed (Amaranthus retroflexus). Put plainly: Test A postemergence. The settings on record: Amaranthus retroflexus, post-emergence, 240 h, 125 g ai/ha, postemergence, visual injury rating after approximately 10 d; read-out: Pigweed plant response rating (0 to 100 scale, 0 no effect, 100 complete control). The essentials: as §1
In assay [13] the test system is ragweed (common ragweed, Ambrosia elatior). Nature of the assay: Test A postemergence. The settings on record: Ambrosia artemisiifolia, post-emergence, 240 h, 125 g ai/ha, postemergence, visual injury rating after approximately 10 d; read-out: Ragweed plant response rating (0 to 100 scale, 0 no effect, 100 complete control). The essentials:
as §1

Assay [14] deals with ryegrass, Italian (Italian ryegrass, Lolium multiflorum). Put plainly: Test A postemergence. The settings on record: Lolium multiflorum, post-emergence, 240 h, 125 g ai/ha, postemergence, visual injury rating after approximately 10 d; read-out: Ryegrass, Italian plant response rating (0 to 100 scale, 0 no effect, 100 complete control). Summed up: as §1
Assay [15] deals with wheat (Triticum aestivum). Put plainly: Test A postemergence. The conditions noted are these: Triticum aestivum, post-emergence, 240 h, 125 g ai/ha, postemergence, visual injury rating after approximately 10 d; read-out: Wheat plant response rating (0 to 100 scale, 0 no effect, 100 complete control). Summed up: as §1

As for `CN1C[C@H](c2cccc(C3CC3)c2)[C@@H](C(=O)Nc2ccccc2S(C)(=O)=O)C1=O` [Compound 817], the pest or weed control at 125 g/ha in [1] was 50%; in [2] it was 90%; in [3] it was 90%; in assay [4], 0%; in assay [5], 20%; in [6], 20%. The pest or weed control at 125 g/ha in assay [7] worked out at 40%; in assay [8], 0%; in assay [9], 90%; in [11], 90%; in assay [12], 0%; in assay [13], 0%. Also, the pest or weed control at 125 g/ha in [14] came to 30%. For the same compound, the pest or weed control at 500 g/ha turned out to be 70% in [1]; 90% in assay [2]; 90% in assay [3]; 80% in assay [4]; 50% in [5]; 40% in assay [6]. Besides, the plant injury at 125 g/ha in assay [10] and in assay [15] was 50% each time.

With `COc1cc(C(F)(F)F)ccc1[C@H]1CN(C)C(=O)[C@@H]1C(=O)Nc1cccc(F)c1F` [Compound 859], the pest or weed control at 125 g/ha in assay [1] is 50%; in assay [2], 90%; in assay [3], 90%; in assay [4], 60%; in assay [5], 0%; in assay [6] it was 20%. In addition, the pest or weed control at 125 g/ha in assay [7] was found to be 50%; in assay [8] it was 20%; in assay [9], 80%; in assay [11] it was 80%; in assay [12], 20%; in assay [13], 0%. Also, the pest or weed control at 125 g/ha in assay [14] came out at 20%. The pest or weed control at 500 g/ha was found to be 60% in [1]; 90% in assay [2]; 90% in assay [3]; 80% in assay [4]; 50% in assay [5]; 80% in assay [6]. The plant injury at 125 g/ha in assay [10] was determined as 50%; in [15], 20%.
